Results on 13 compounds are retold here after PubChem BioAssay (NCI).

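Dose response: 5 concentrations. Exposure: 48 h. Format: 96-well plates. Endpoint: linear interpolation; highest concentration if not reached. GI50 is the concentration that inhibits growth by half. TGI denotes the concentration required for complete inhibition of growth.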 Where only a bound is given, the exact number is not on record here.

Test in all cases: NCI tumour cell line growth inhibition, 48 h
For experiment [1], the system named is CAKI-1 renal.
Experiment [2] deals with HCC-2998 colon.
Experiment [3] relates to 786-0 renal.
The subject of experiment [4] is UACC-62 melanoma.
Experiment [5] concerns HCT-15 colon.
Experiment [6] deals with RPMI-8226 leukemia.
Experiment [7] concerns MOLT-4 leukemia.
The test system of experiment [8] is KM12 colon.
Experiment [9] concerns SF-539 CNS.
For experiment [10], the system named is NCI-H460 lung.

Turning to `CN(C)c1ccc(/C=C2\Oc3cc(O)ccc3C2=O)cc1`, the TGI in experiment [1], in [2], in experiment [3], in experiment [4], in experiment [5] and in experiment [6] was over 100 µM in each case. The TGI in experiment [7], in experiment [8], in experiment [9] and in experiment [10] was over 100 µM throughout.
For the compound `CN1CCN(CCSC2Cc3cc(Cl)ccc3Sc3ccccc32)CC1` (stereo not given), the TGI in experiment [1] is 17.2 µM; in [2] it was 15.3 µM; in experiment [3], 9.11 µM; in [4], 3.63 µM; in experiment [5], 12.2 µM; in experiment [6] it was 5.34 µM. The TGI in [7] stood at 7.74 µM; in [8], 20.1 µM; in experiment [9] it was 11.7 µM; in [10], 16.1 µM.
Consider `COc1cc(-c2cnn(C)c2)ccc1Nc1ncc2ccnc(N[C@@H](C)C(C)(C)C)c2n1`, for which the GI50 in experiment [1] was over 100 µM; in [2], over 100 µM; in [3] it was over 31.6 µM; in experiment [4] it was over 100 µM; in experiment [5], 0.651 µM; in [6] it was over 100 µM. Further, the GI50 in experiment [7] was over 69 µM; in experiment [8], 1.51 µM; in [9], over 57.3 µM; in experiment [10], 0.819 µM. Moreover, the TGI in [1], in experiment [2], in [3], in experiment [4], in [5] and in experiment [6] was over 100 µM throughout. The TGI in [7], in experiment [8], in experiment [9] and in experiment [10] was over 100 µM each time.
For `C=CCCCCCCCCCCCC1CCC(CC)N1` (stereo not given), the TGI was 25.4 µM in experiment [1]; 8.04 µM in experiment [2]; 21.8 µM in experiment [3]; 29.4 µM in experiment [4]; 12.9 µM in experiment [5]; 31.9 µM in [6]. In addition, the TGI in [7] worked out at 17 µM; in experiment [8], 13.1 µM; in [9] it was 25.3 µM; in [10] it was 40.7 µM.
Take `CCOc1ccc(/C=C/C(=O)c2ccccc2)cc1`: the GI50 is 14.1 µM in experiment [1]; 15.6 µM in [2]; 20.6 µM in experiment [3]; 17 µM in experiment [4]; 14.6 µM in experiment [5]; 3.95 µM in experiment [6]. Besides, the GI50 in experiment [7] is 18.6 µM; in [8] it was 10.7 µM; in [9] it was 19.4 µM; in experiment [10], 19.5 µM. In addition, the TGI came out at 30.7 µM in experiment [1]; 29.7 µM in experiment [2]; 39.1 µM in experiment [3]; 36.5 µM in experiment [4]; 48 µM in experiment [5]; 20.5 µM in experiment [6]. Also, the TGI in experiment [7] amounted to 94.9 µM; in [8], 23.6 µM; in [9], 45.5 µM; in experiment [10], 41.6 µM.
Turning to `Nc1c(C(=O)c2ccccc2)sc2nc(-c3cccs3)ccc12`, the GI50 was 0.564 µM in [1]; 0.468 µM in experiment [2]; 0.725 µM in experiment [3]; 0.0788 µM in [4]; 0.0552 µM in [5]; 0.513 µM in experiment [6]. Besides, the GI50 in experiment [7] is 0.0504 µM; in experiment [8] it was 0.103 µM; in experiment [9] it was 0.25 µM; in [10], 0.283 µM. Moreover, the TGI in [1] stood at 20.1 µM; in experiment [2] it was 4.25 µM; in experiment [3], 7.67 µM; in experiment [4], 10.4 µM; in experiment [5], 10.4 µM; in [6], 17.6 µM. In addition, the TGI in experiment [7] is 1.12 µM; in [8] it was 5.6 µM; in experiment [9], 1.24 µM; in [10], 2.56 µM.
Consider `Cc1ccc(C(=O)c2oc3ccc4c(C)cc(=O)oc4c3c2C)cc1`, for which the GI50 is 5.78 µM in [1]; 24 µM in experiment [2]; 5.96 µM in experiment [3]; 2.66 µM in experiment [4]; 0.585 µM in [5]; 7.7 µM in [6]. In addition, the GI50 in experiment [7] was 63.6 µM; in experiment [8], 63.3 µM; in experiment [9] it was 1.41 µM; in experiment [10], 0.896 µM. Also, the TGI in [1], in experiment [2], in experiment [3], in experiment [4], in experiment [5] and in experiment [6] was over 100 µM throughout. For the same compound, the TGI in experiment [7] was over 100 µM; in [8] it was over 100 µM; in experiment [9], 20.1 µM; in [10], 18.2 µM.
Take `CC[N+](CCCCCCCCCC[N+](CC)(c1ccccn1)c1ccccn1)(c1ccccn1)c1ccccn1`: the GI50 in experiment [1] is 2.61 µM; in experiment [2], 1.95 µM; in experiment [3], 3.76 µM; in [4], 0.915 µM; in experiment [5], 3.2 µM; in experiment [6], 0.267 µM. The GI50 was 2.28 µM in experiment [7], 0.739 µM in experiment [8], 1.72 µM in [9] and 0.625 µM in experiment [10]. In addition, the TGI in experiment [1] was 9.92 µM; in [2], 27.2 µM; in [3], 66.2 µM; in experiment [4], 7.34 µM; in experiment [5] it was 18.8 µM; in [6] it was 3.57 µM. The TGI turned out to be 13.2 µM in experiment [7], 8 µM in [8], 14.1 µM in experiment [9] and 10.3 µM in experiment [10].
In the case of `COC(=O)c1c(-c2ccccc2)cc2c3cc(-c4ccccc4)c(C(=O)OC)n3c3ccccc3n12`, the TGI in experiment [1], in experiment [2], in experiment [3], in experiment [4], in experiment [5] and in [6] was over 100 µM throughout. The TGI in experiment [7], in [8], in experiment [9] and in [10] was over 100 µM each time.
On to `CC(C)c1ccc(Cc2cnc(NC(=O)c3cc(Br)cs3)s2)cc1`, for which the GI50 was 1.16 µM in [1]; 3.65 µM in experiment [2]; 4.55 µM in experiment [3]; 1.38 µM in [4]; 0.789 µM in experiment [5]; 3.6 µM in [6]. In addition, the GI50 in experiment [7] is 7.59 µM; in experiment [8], 2.12 µM; in experiment [9], 2.04 µM; in [10] it was 3.3 µM. Also, the TGI in experiment [1], in [2], in [3], in experiment [4], in experiment [5] and in [6] was over 100 µM each time. For the same compound, the TGI in experiment [7] was over 100 µM; in [8], over 100 µM; in experiment [9], 5.64 µM; in experiment [10], over 100 µM.
On to `C=CC(=O)N1CCCC(n2nc(-c3ccc(Oc4ccccc4)cc3)c3c(N)ncnc32)C1` (stereo not given), for which the GI50 in [1] was 0.107 µM; in [2], 16 µM; in [3] it was 1.86 µM; in experiment [4], 2.36 µM; in experiment [5] it was 12.6 µM; in [6], 6.57 µM. Besides, the GI50 in experiment [7] is 4.28 µM; in [8] it was 8.73 µM; in experiment [9], 6.73 µM; in experiment [10], 14.3 µM. The TGI came to 10.6 µM in experiment [1]; 30.8 µM in [2]; 16.6 µM in [3]; 14.6 µM in [4]; 28.9 µM in experiment [5]; 31.2 µM in experiment [6]. The TGI in experiment [7] was determined as 25.8 µM; in experiment [8], 22 µM; in [9], 21 µM; in experiment [10] it was 31 µM.
Regarding `O=C(Nc1ccc(Cl)cc1)Nc1ccc(Cl)c(Cl)c1`, the GI50 in [1] is 2.96 µM; in [2], 3.9 µM; in experiment [3] it was 4.43 µM; in experiment [4], 5.59 µM; in experiment [5], 2.92 µM; in experiment [6] it was 1.61 µM. In addition, the GI50 in [7] was 2.65 µM; in experiment [8], 3.31 µM; in experiment [9], 2.96 µM; in experiment [10] it was 2.77 µM. The TGI in experiment [1] was over 100 µM; in [2] it was 44.5 µM; in [3] it was over 100 µM; in [4], over 100 µM; in experiment [5], 62.5 µM; in [6], 4.73 µM. The TGI in experiment [7] is over 100 µM; in [8], 13.8 µM; in experiment [9], 60.4 µM; in [10], 12.6 µM.
On to `COc1cc(OC)c(/C=C/c2ccc3ccccc3[n+]2C)c(OC)c1`, for which the GI50 in [1] was 8.55 µM; in [2] it was 0.811 µM; in [3], 3.16 µM; in experiment [4], 1.13 µM; in [5], 12.8 µM; in experiment [6], 0.281 µM. The GI50 is 1.35 µM in [7], 0.322 µM in experiment [8], 0.422 µM in experiment [9] and 0.577 µM in experiment [10]. Moreover, the TGI in experiment [1] is over 49.2 µM; in experiment [2], 5.6 µM; in [3], 16.8 µM; in experiment [4], 3.08 µM; in experiment [5], over 100 µM; in experiment [6], 2.24 µM. The TGI was determined as 4.77 µM in experiment [7], 1.99 µM in experiment [8], 5.78 µM in experiment [9] and 2.72 µM in experiment [10].
